Laboratory results: patent publication US7517996B2, “Azole compound” (Ajinomoto Co., Inc., priority 2003, dated 2009)

assay: Inhibition of LPA-induced intracellular Ca2+ concentration increase (FLIPR); assay type: cell-based; conditions: LPA final concentration 5 μM; rat hepatic stellate cell derived myofibroblast like clone; Fluo-3, FLIPR
Text: (1) Establishment of Myofibroblast Like Cell Strain Derived from Rat Hepatic Stellate Cell Fraction A stellate cell fraction was obtained from the liver of male Wistar rat according to a conventional method (European J. Biochem., 1993, vol. 213, p. 815). After subculture for several generations, the cell was cloned by limiting dilution. Well grown 24 clones that formed colonies were isolated. These clones were stained with αSMA antibody and confirmed to be all positive and to have Myofibroblast like properties. […] (2) Measurement of Cell Activation (Intracellular Ca^2+ Concentration Increasing Action)-Inhibitory Activity The above-mentioned cells were cultured overnight in a 384 well plate at 24,000 cells/well and the medium was removed. An assay buffer (0.1% BSA, 20 mM HEPES, 1×HBSS, 2.5 mM Probenecid) containing 4 μM of Fluo-3, AM (Biotium) was added, and the cells were stained at 37° C. for 1 hour. Following the buffer containing the dye reagent was removed, and an assay buffer was added, intracellular Ca^2+ concentration was measured with FLIPR (Molecular Devices). Adding a test substance and LPA at the final concentration of 5 μM, the inhibitory action of the test substance on the increase in the intracellular Ca^2+ concentration by LPA was examined. The increase in the intracellular Ca^2+ concentration by LPA addition without test substance was taken as 100%, that without the addition of LPA was taken as 0%, and the substrate's concentration (IC50) at inhibiting increase in the intracellular Ca^2+ concentration by 50% was determined.

Row | SMILES | IC50 [nM]
1 | CC(=O)N[C@@H](CSCc1ccc(-c2nocc2NC(=O)OC(C)c2ccccc2Cl)cc1)C(=O)O (stereo partly drawn) [Compound 4, N-acetyl-S-(4-{4-[1-(2-chlorophenyl)ethoxycarbonylamino]-3-isoxazolyl}benzyl)-L-cysteine] | 65
2 | CC(OC(=O)Nc1cnoc1-c1ccc(CSCCC(=O)O)cc1)c1ccccc1Cl (stereo not drawn) [Compound 18, 3-(4-{4-[1-(2-chlorophenyl)ethoxycarbonylamino]-5-isoxazolyl}benzylsulfanyl)propionic acid] | 81
3 | C[C@@H](OC(=O)Nc1conc1-c1ccc(CSCCC(=O)O)cc1)C1=C(Cl)CCC1 [Compound 9, 3-(4-{4-[(1R)-1-(2-chloro-1-cyclopentenyl)ethoxycarbonyl-amino]-3-isoxazolyl}benzylsulfanyl)propionic acid] | 26
4 | CC(OC(=O)Nc1conc1-c1ccc(CSCCC(=O)O)cc1)C1=C(Cl)CCC1 (stereo not drawn) [Compound 8, 3-(4-{4-[1-(2-chloro-1-cyclopentenyl)ethoxycarbonylamino]-3-isoxazolyl}benzylsulfanyl)propionic acid] | 29
5 | C[C@@H](OC(=O)Nc1conc1-c1ccc(CCCCC(=O)O)cc1)c1ccccc1Cl [Compound 31, 5-(4-{4-[(1R)-1-(2-chlorophenyl)ethoxycarbonylamino]-3-isoxazolyl}phenyl)-4-pentanoic acid] | 76
6 | CC(OC(=O)Nc1conc1-c1ccc(CCSCC(=O)O)cc1)c1ccccc1Cl (stereo not drawn) [Compound 14, {[2-(4-{4-[1-(2-chlorophenyl)ethoxycarbonylamino]-3-isoxazolyl}phenyl)ethyl]thio}acetic acid] | 146
7 | CC(OC(=O)Nc1conc1-c1ccc(CSCCS(=O)(=O)O)cc1)c1ccccc1Cl (stereo not drawn) [Compound 5, 2-(4-{4-[1-(2-chlorophenyl)ethoxycarbonylamino]-3-isoxazolyl}benzylsulfanyl)ethanesulfonic acid] | 74
8 | C[C@@H](OC(=O)Nc1conc1-c1ccc(/C=C/CCC(=O)O)cc1)c1ccccc1Cl [Compound 30, 5-(4-{4-[(1R)-1-(2-chlorophenyl)ethoxycarbonylamino]-3-isoxazolyl}phenyl)-4-pentenoic acid] | 107
9 | CC(OC(=O)Nc1conc1-c1ccc(CCSCC(=O)O)cc1)C1=C(Cl)CCCC1 (stereo not drawn) [Compound 17, {[2-(4-{4-[1-(2-chlorocyclohexenyl)ethoxycarbonylamino]-3-isoxazolyl}phenyl)ethyl]thio}acetic acid] | 62
10 | CC(OC(=O)Nc1conc1-c1ccc(COC(=O)NCCC(=O)O)cc1)c1ccccc1Cl (stereo not drawn) [Compound 20, 3-(4-{4-[1-(2-chlorophenyl)ethoxycarbonylamino]-3-isoxazolyl}benzyloxycarbonylamino)propionic acid] | 83
11 | CC(OC(=O)Nc1conc1-c1ccc(CSCCC(=O)O)cc1)C1=C(Cl)CCCC1 (stereo not drawn) [Compound 10, 3-(4-{4-[1-(2-chloro-1-cyclohexenyl)ethoxycarbonylamino]-3-isoxazolyl}benzylsulfanyl)propionic acid] | 56
12 | C[C@@H](OC(=O)Nc1conc1-c1ccc(CS(=O)(=O)CCC(=O)O)cc1)c1ccccc1Br [Compound 12, 3-(4-{4-[(1R)-1-(2-bromophenyl)ethoxycarbonylamino]-3-isoxazolyl}benzylsulfonyl)propionic acid] | 68
13 | C[C@@H](OC(=O)Nc1conc1-c1ccc(CS(=O)(=O)CCC(=O)O)cc1)c1ccccc1Cl [Compound 28, 3-(4-{4-[(1R)-1-(2-chlorophenyl)ethoxycarbonylamino]-3-isoxazolyl}benzylsulfonyl)propionic acid] | 36
14 | CC(OC(=O)Nc1conc1-c1ccc(CS(=O)(=O)CCC(=O)O)cc1)C1=C(Cl)CCCC1 (stereo not drawn) [Compound 13, 3-(4-{4-[1-(2-chloro-1-cyclohexenyl)ethoxycarbonylamino]-3-isoxazolyl}benzylsulfonyl)propionic acid] | 104
15 | C[C@@H](OC(=O)Nc1conc1-c1ccc(CSCCC(=O)O)cc1)c1ccccc1Br [Compound 6, 3-(4-{4-[(1R)-1-(2-bromophenyl)ethoxycarbonylamino]-3-isoxazolyl}benzylsulfanyl)propionic acid] | 22
16 | CC(=O)O[C@H](CC(=O)Nc1ccc(-c2nocc2NC(=O)OC(C)c2ccccc2Cl)cc1)C(=O)O (stereo partly drawn) [Compound 26, (2R)-2-acetoxy-4-[(4-{4-[1-(2-chlorophenyl)ethoxy-carbonylamino]-3-isoxazolyl}phenyl)amino]-4-oxobutanoic acid] | 141
17 | CC(OC(=O)Nc1conc1-c1ccc(CCC(C)(C)CC(=O)O)cc1)c1ccccc1Cl (stereo not drawn) [Compound 33, 5-(4-{4-[1-(2-chlorophenyl)ethoxycarbonylamino]-3-isoxazolyl}phenyl)-3,3-dimethylpentanoic acid] | 119

Row | SMILES | IC50 [nM]
18 | CC(OC(=O)Nc1conc1-c1ccc(NC(=O)C[C@@H](O)C(=O)O)cc1)c1ccccc1Cl (stereo partly drawn) [Compound 21, 4-[(4-{4-[1-(2-chlorophenyl)ethoxycarbonylamino]-3-isoxazolyl}phenyl)amino]-(2R)-2-hydroxy-4-oxobutanoic acid] | 84
19 | CC(OC(=O)Nc1conc1-c1ccc(CCSCCC(=O)O)cc1)c1ccccc1Cl (stereo not drawn) [Compound 15, {3-[2-(4-{4-[1-(2-chlorophenyl)ethoxycarbonylamino]-3-isoxazolyl}phenyl)ethyl]thio}propionic acid] | 44
20 | CC(=O)Oc1ccc(-c2nocc2NC(=O)OC(C)c2ccccc2Cl)cc1 (stereo not drawn) [Compound 22, 4-[4-({[1-(2-chlorophenyl)ethoxy]carbonyl}amino)-3-isoxazolyl]phenyl acetate] | 140
21 | CC(OC(=O)Nc1conc1-c1ccc(CSCCC(=O)O)cc1)c1ccccc1Cl (stereo not drawn) [Compound 2, 3-(4-{4-[1-(2-chlorophenyl)ethoxycarbonylamino]-3-isoxazolyl}benzylsulfanyl)propionic acid] | 51
22 | CC(OC(=O)Nc1conc1-c1ccc(CCCCC(=O)O)cc1)c1ccccc1Cl (stereo not drawn) [Compound 19, 5-(4-{4-[1-(2-chlorophenyl)ethoxycarbonylamino]-3-isoxazolyl}phenyl)-4-pentanoic acid] | 47
23 | C[C@@H](OC(=O)Nc1conc1-c1ccc(CCCCCC(=O)O)cc1)c1ccccc1Cl [Compound 32, 6-(4-{4-[(1R)-1-(2-chlorophenyl)ethoxycarbonylamino]-3-isoxazolyl}phenyl)hexanoic acid] | 114
24 | CC(=O)N[C@@H](CSCc1ccc(-c2nocc2NC(=O)O[C@H](C)c2ccccc2Br)cc1)C(=O)O [Compound 7, N-acetyl-S-(4-{4-[(1R)-1-(2-bromophenyl)-ethoxycarbonylamino]-3-isoxazolyl}benzyl)-L-cysteine] | 59
25 | CC(OC(=O)Nc1conc1-c1ccc(NC(=O)CCC(=O)O)cc1)c1ccccc1Cl (stereo not drawn) [Compound 25, 4-[(4-{4-[1-(2-chlorophenyl)ethoxycarbonylamino]-3-isoxazolyl}phenyl)amino]-4-oxobutanoic acid] | 73
26 | C[C@@H](OC(=O)Nc1conc1-c1ccc(CCSCCC(=O)O)cc1)c1ccccc1Cl [Compound 29, {3-[2-(4-{4-[(1R)-1-(2-chlorophenyl)ethoxycarbonylamino]-3-isoxazolyl}phenyl)ethyl]thio}propionic acid] | 29
27 | CC(OC(=O)Nc1conc1-c1ccc(CS(=O)(=O)CCC(=O)O)cc1)c1ccccc1Cl (stereo not drawn) [Compound 11, 3-(4-{4-[1-(2-chlorophenyl)ethoxycarbonylamino]-3-isoxazolyl}benzylsulfonyl)propionic acid] | 115
28 | CC(OC(=O)Nc1conc1-c1ccc(CCSCC(=O)O)cc1)C1=C(Cl)CCC1 (stereo not drawn) [Compound 16, {[2-(4-{4-[1-(2-chlorocyclopentenyl)ethoxycarbonylamino]-3-isoxazolyl}phenyl)ethyl]thio}acetic acid] | 32
29 | C[C@@H](OC(=O)Nc1conc1-c1ccc(CCSCC(=O)O)cc1)c1ccccc1Cl [Compound 27, {[2-(4-{4-[(1R)-1-(2-chlorophenyl)ethoxycarbonylamino]-3-isoxazolyl}phenyl)ethyl]thio}acetic acid] | 19
30 | C[C@@H](OC(=O)Nc1conc1-c1ccc(CSCCC(=O)O)cc1)c1ccccc1Cl [Compound 3, 3-(4-{4-[(1R)-1-(2-chlorophenyl)ethoxycarbonylamino]-3-isoxazolyl}benzylsulfanyl)propionic acid] | 22
31 | CC(OC(=O)Nc1conc1-c1ccc(OCCCCC(=O)O)cc1)c1ccccc1Cl (stereo not drawn) [Compound 24, 5-(4-{4-[1-(2-chlorophenyl)ethoxycarbonylamino]-3-isoxazolyl}phenoxy)pentanoic acid] | 131
32 | CC(OC(=O)Nc1conc1-c1ccc(O)cc1)c1ccccc1Cl (stereo not drawn) [Compound 23, 1-(2-chlorophenyl)ethyl 3-(4-hydroxyphenyl)-4-isoxazolylcarbamate] | 116
33 | CC(CCCc1ccc(-c2nocc2NC(=O)O[C@H](C)c2ccccc2Cl)cc1)C(=O)O (stereo partly drawn) [Compound 34, 5-(4-{4-[(1R)-1-(2-chlorophenyl)ethoxycarbonylamino]-3-isoxazolyl}phenyl)-2-methylpentanoic acid] | 102
